Reference: ChEMBL document CHEMBL1146648, “Development of l-3-aminotyrosine suitably protected for the synthesis of a novel nonphosphorylated hexapeptide with low-nanomolar Grb2-SH2 domain-binding affinity” (Bioorg Med Chem Lett, 2004)
Where a SMILES comes first, the peptide text is derived from it. Bridges are numbered along the chain shown (N, C = ends). [ ]: non-standard residue; d: D form. Tyr(3-NH2) = Nc1cc(C[C@H](N)C(=O)O)ccc1O; Gla = N[C@@H](CC(C(=O)O)C(=O)O)C(=O)O; Aad = N[C@@H](CCCC(=O)O)C(=O)O; Ac6c = NC1(C(=O)O)CCCCC1; Ava = NCCCCC(=O)O

Molecular target: Growth factor receptor-bound protein 2 (Homo sapiens, UniProt P62993)
Test: Competitive binding affinity against Growth factor receptor bound protein 2 was assessed using SHC(pTyr-317) phospopeptide in biacore surface plasmon resonance (SPR) method

Row | Compound | IC50 [µM]
1 | CC(C)C[C@@H]1NC(=O)[C@H](CCCC(=O)O)NC(=O)C[S+]([O-])C[C@@H](C(N)=O)NC(=O)CCCCNC(=O)[C@H](C(C)C)NC(=O)[C@H](CC(N)=O)NC(=O)C2(CCCCC2)NC(=O)[C@H](Cc2ccc(O)cc2)NC1=O (stereo partly specified) | 9.8
2 | CC(C)C[C@@H]1NC(=O)[C@H](CCCC(=O)O)NC(=O)C[S+]([O-])C[C@H](C(N)=O)NC(=O)CCCCNC(=O)[C@H](C(C)C)NC(=O)[C@H](CC(N)=O)NC(=O)C2(CCCCC2)NC(=O)[C@H](Cc2ccc(O)cc2)NC1=O (stereo partly specified) | 84.5
3 | CC(C)C[C@@H]1NC(=O)[C@H](CCCC(=O)O)NC(=O)CSC[C@@H](C(N)=O)NC(=O)CCCCNC(=O)[C@H](C(C)C)NC(=O)[C@H](CC(N)=O)NC(=O)C2(CCCCC2)NC(=O)[C@H](Cc2ccc(O)cc2)NC1=O ({CH2CO}-[Aad]LY[Ac6c]NV[Ava]C-NH2; thioether N-8) | 11.4
4 | CC(C)C[C@@H]1NC(=O)[C@H](CC(C(=O)O)C(=O)O)NC(=O)C[S+]([O-])C[C@H](C(N)=O)NC(=O)CCCCNC(=O)[C@H](C(C)C)NC(=O)[C@H](CC(N)=O)NC(=O)C2(CCCCC2)NC(=O)[C@H](Cc2ccc(O)c(N)c2)NC1=O (stereo partly specified) | 1.08

Now those with a lower IC50, led by results:

Row | IC50 [µM] | Compound
5 | 0.05 | CC(C)C[C@@H]1NC(=O)[C@H](CC(C(=O)O)C(=O)O)NC(=O)C[S+]([O-])C[C@@H](C(N)=O)NC(=O)CCCCNC(=O)[C@H](C(C)C)NC(=O)[C@H](CC(N)=O)NC(=O)C2(CCCCC2)NC(=O)[C@H](Cc2ccc(O)c(N)c2)NC1=O (stereo partly specified)
6 | 0.16 | CC(C)C[C@@H]1NC(=O)[C@H](CC(C(=O)O)C(=O)O)NC(=O)CSC[C@@H](C(N)=O)NC(=O)CCCCNC(=O)[C@H](C(C)C)NC(=O)[C@H](CC(N)=O)NC(=O)C2(CCCCC2)NC(=O)[C@H](Cc2ccc(O)c(N)c2)NC1=O ({CH2CO}-[Gla]L[Tyr(3-NH2)][Ac6c]NV[Ava]C-NH2; thioether N-8)
